The subject of experiment [1] is U373 human glioma xenograft tumors. As to the kind of experiment: U373 xenograft tumor growth in nude mice. The experiment is classed as in vivo. The conditions noted are these: i.p. The method, then:
(§1) In brief, female athymic nude mice or female SCID mice (4-6 week old) from Charles River Laboratories were maintained in a VAF-barrier facility. Animal procedures were performed in accordance with the rules set forth in the N.I.H. guide for the care and use of laboratory animals.
(§2) DAOY human medulloblastoma cells (5×10^6), U373 human glioma cells (5×10^6), LOX human melanoma cells (5×10^5), and A375 human melanoma cells (5×10^6) were inoculated subcutaneously in the right flank of the animal (LOX in SCID mice; DAOY, U373, and A375 in nude mice). To facilitate in vivo growth, Matrigel was mixed with DAOY and A375 cells (50%) before inoculation. When tumor volumes were approximately 100 mm^3, animals were randomized and grouped (n=10 LOX, DAOY, and A375; n=9 U373). Tumor volumes and body weight were measured twice weekly using Labcat™ computer application (Innovative Programming Associates, N.J.). Tumor volumes were calculated by the formula (W×L×H)×π×⅙. TMZ was administered by intraperitoneal injections with 20% HPβCD (containing 1% DMSO) as vehicle.
Mice bearing xenograft tumors of U373 human glioma cells, a high MGMT level cell line, were treated with TMZ for 5 consecutive days (day 1 through day 5) over a cycle that is at least a 28-day cycle. […]

Experiment [2] relates to LOX human melanoma xenograft tumors. As to the kind of experiment: LOX xenograft tumor growth in SCID mice. The class given is in vivo. The conditions noted are these: i.p., 72 mg/kg total dose. The method, then: as §1, §2
Mice bearing xenograft tumors of LOX human melanoma cells, a low MGMT level cell line, were treated with TMZ using two different schedules. The same total dose was administered evenly divided over the course of either: (i) 4 or (ii) 12 days. […]

The structures appear in SMILES notation.

As to `Cn1nnc2c(C(N)=O)ncn2c1=O` [TMZ, 3,4-dihydro-3-methyl-4-oxoimidazo[5,1-d]-as-tetrazine-8-carboxamide], the TGI was found to be 100% in experiment [1] (35 mg/kg for 5 consecutive days (175 mg/kg total)), 113% in experiment [1] (70 mg/kg for 5 consecutive days (350 mg/kg total)), 88% in experiment [2] (4-day treatment schedule (Day 1-4)) and 50% in experiment [2] (12-day schedule (Day 1-12)).
